Data set [1] relates to hypoglossal motor neurons. The data set is described as follows: Axotomy-induced motor neuronal dedifferentiation in the adult rat (hypoglossal nerve). In kind it is in vivo. The settings on record: for ChAT-Positive Motor Neurons Average/Group / ChAT-Positive Motor Neurons Experimental/Control / ChAT-Positive Motor Neurons %: 7 days; for ChAT-Positive Motor Neurons Experimental/Control: counts ipsilateral/contralateral; for ChAT-Positive Motor Neurons Experimental/Control / ChAT-Positive Motor Neurons %: per animal. On the procedure:
The left hypoglossal nerve was transected in the neck of adult female Sprague-Dawley rats (120-180 g) under Neumbutol anesthesia, and 50 µl of Compound III-3 or its vehicle (5% Solutol™ HS 15) were applied to a piece of Gelfoam ™ (AJ Buck, Owings Mills, MD), then wrapped around the proximal end of the transected nerve. After 7 days, the animals were anesthetized and perfused with 4% paraformaldehyde in Sorenson's buffer, 0.07 M phosphate, pH 7.2. The brain stem was removed and 40- µm-thick serial coronal sections were cut on a cryostat (Chiu, et al., NeuroReport, 1994, 5, 693-696, which is incorporated herein by reference in its entirety). Every fifth section was processed for ChAT immunohistochemistry as previously described (Chiu, et al., J. Comp. Neurol., 1993, 328, 351-363, which is incorporated herein by reference in its entirety) using a 1:350 dilution of an anti-ChAT monoclonal antibody obtained from Chemicon. Cells that stained clearly above background were counted in stained sections; the number of enumerated cells was expressed as the ratio of the number of ChAT-immunoreactive cells on the axotomized side of the hypoglossal nucleus versus the number of immunoreactive cells on the control (uninjured) side.

The target in data set [2] is T1, MLK-3 (Homo sapiens, UniProt Q16584).
T1 construct: A full length cDNA of human MLK-3, MLK-2, or mouse DLK; expressed in transfected cells; host or cells: Cos7
The experiment in a line: JNK activity (immunoprecipitation/kinase assay) in Cos7 cells overexpressing MLK-3 and HA-JNK1. In kind it is cell-based. The settings on record: COS-7. As to the method: Cos7 cells were plated at 80% confluency and transfected with 2 ug each of cDNA constructs using lipofectamine as recommended by the provider (Gibco BRL, Gaithersburg, MD). A full length cDNA of human MLK-3, MLK-2, or mouse DLK or a partial human MLK-1 as described above, and a full length Hemagluttinin A-tagged human JNK1, kindly provided by J. Silvio Gutkind (NIH, Bethesda, MD), were subcloned into the pcDNA3 vector (Invitrogen, San Diego, CA). […] JNK activity from the lysate was assayed by an immunoprecipitation/kinase assay as described below.
Lysate from Cos 7 cells was measured for protein concentration using the Micro BCA kit from Pierce (Rockford, IL) and equal amounts of protein were immunoprecipitated with the HA antibody for 1 hr at 4°C. Immunoprecipitates were pelleted by centrifugation in a microfuge centrifuge for 20 sec, resuspended in Triton buffer, washed by centrifugation 2 more times, followed by a final wash in Kinase buffer (20 mM Hepes pH 7.4,20 mM MgCl2, 2 mM dithiothreitol, 0.1 mM sodium vanadate). The immunoprecipitate was resuspended in kinase buffer containing 1 µM ATP and 5 µCi [γ-^32P]ATP and substrate (1 µg/sample of AP-1 ) and incubated for 15 min at 30°C. […] Samples were heated to 80°C for 5 min and loaded onto 10% SDS-polyacrylamide gels. Proteins were separated by electrophoresis. The gel was dried and quantitation of radioactivity in the AP-1 substrate was performed on a Molecular Dynamics Phosphorimager (Sunnyvale, Ca.).
To determine whether inhibition of the JNK pathway regulated by these kinases correlated with neurotrophic compounds, we evaluated the effect of compounds on JNK activity in Cos7 cells overexpressing HA-JNK and MLK3. After a 48 hr transfection period, the cells were incubated with compounds at 500 nM for 2hr followed by cellular lysis. Lysate was immunoprecipitated and kinase activity measured as previously described. […]

The subject of data set [3] is MKK4. The experiment in a line: MPTP model: phosphorylated MKK4 in the substantia nigra (immunoblot, ELISA). In kind it is in vivo, mice. The note with it: pretreatment; Compound III-3 1 mg/kg (Fig. 22c). As to the method:
MPTP was administered at a dose (40 mg/kg) that produces loss of striatal dopaminergic terminals and cell bodies in the substantia nigra. Tyrosine hydroxylase was used as a marker for dopamenergic nerve terminals in the substantia nigra. […] Since Compound III-3 is a known inhibitor of MLK3, activation of a downstream substrate of MLK3 was measured in MPTP- treated mice. Levels of phosphorylated MKK4 were measured using a phospho-MKK4 specific antibody (New England Biolabs, Beverly, MA) that recognizes the monophosphorylated form of MKK4 by either immunoblot (Fig. 22b) or ELISA (Fig. 22c). MPTP administration elevated levels of phosphorylated MKK4 in the substantia nigra by up to 5 fold over control levels (Fig. 22b). Peak elevations occurred 4 hrs after administration ofMPTP and coincided with peak CNS levels of MPP^+.
(A western blot detects proteins with antibodies after separation by electrophoresis.)

Several values for one entry are separate records, joined by “and”; a condition that tells them apart may be missing. Equal values may be shown once. Read-outs that look alike come from different tables or passages of the source. Marks after values point to notes of the source that are not given here.

T1 sequence (Q16584 whole entry): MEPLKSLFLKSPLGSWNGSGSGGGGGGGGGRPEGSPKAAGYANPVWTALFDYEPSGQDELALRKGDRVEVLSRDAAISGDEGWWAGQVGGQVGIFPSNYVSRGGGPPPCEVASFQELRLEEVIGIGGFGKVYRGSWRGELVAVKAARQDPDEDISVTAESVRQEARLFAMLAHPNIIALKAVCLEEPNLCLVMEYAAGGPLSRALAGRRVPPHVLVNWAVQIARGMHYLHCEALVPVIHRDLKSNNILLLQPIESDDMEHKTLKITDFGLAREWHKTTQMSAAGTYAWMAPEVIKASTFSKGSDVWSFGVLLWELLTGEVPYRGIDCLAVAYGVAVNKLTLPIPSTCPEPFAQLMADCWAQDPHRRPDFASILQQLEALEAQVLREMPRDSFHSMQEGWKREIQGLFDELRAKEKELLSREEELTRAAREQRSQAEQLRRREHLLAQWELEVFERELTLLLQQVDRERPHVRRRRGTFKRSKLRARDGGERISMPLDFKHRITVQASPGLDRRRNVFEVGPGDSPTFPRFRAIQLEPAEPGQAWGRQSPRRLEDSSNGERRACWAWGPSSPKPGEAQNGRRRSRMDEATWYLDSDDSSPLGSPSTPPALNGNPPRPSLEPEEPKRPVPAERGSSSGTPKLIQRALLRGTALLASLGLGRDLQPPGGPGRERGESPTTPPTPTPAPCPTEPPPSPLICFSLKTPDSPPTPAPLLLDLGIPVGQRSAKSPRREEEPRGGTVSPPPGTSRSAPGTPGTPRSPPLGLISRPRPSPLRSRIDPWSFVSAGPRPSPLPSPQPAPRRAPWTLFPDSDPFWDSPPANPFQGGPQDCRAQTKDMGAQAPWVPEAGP

On to `CCSCc1ccc2c(c1)c1c3c(c4c5cc(CSCC)ccc5n5c4c1n2C1CC(O)(C(=O)OC)C5(C)O1)CNC3=O` (centres unmarked) [III-3], for which the “ChAT-Positive Motor Neurons Average/Group” value in data set [1] (3.6 µg in gel foam) was 12.84*; in data set [1] (25 µg in gel foam) it was 19.01*; in data set [1] (50 µg in gel foam), 41.34*; in data set [1] (100 µg in gel foam), 32.61*; in data set [1] (200 µg in gel foam), 24.96*. Further, the “ChAT-Positive Motor Neurons Experimental/Control” value in data set [1] (3.6 µg in gel foam) was 55/420 and 72/572; in data set [1] (25 µg in gel foam), 95/597 and 142/642; in data set [1] (50 µg in gel foam) it was 278/637 and 188/484; in data set [1] (100 µg in gel foam), 465/920 and 235/784 and 178/770 and 182/679; in data set [1] (200 µg in gel foam) it was 99/461 and 159/559. The “ChAT-Positive Motor Neurons %” value is 13.10% and 12.59% in data set [1] (3.6 µg in gel foam); 15.91% and 22.12% in data set [1] (25 µg in gel foam); 43.85% and 38.84% in data set [1] (50 µg in gel foam); 50.54% and 29.98% and 23.12% and 26.80% in data set [1] (100 µg in gel foam); 21.48% and 28.44% in data set [1] (200 µg in gel foam). The “weight loss, mortality, gross tissue damage” value in data set [1] (any doses tested, hypoglossal axotomy model) is “no associated weight loss, mortality, or gross tissue damage”. In data set [1] (maximally effective dose (50 µg), 7 days postaxotomy), the “more ChAT-immunoreactive motor neurons compared to the axotomized, untreated control” value was found to be 40%. Also, the inhibition at 0.5 µM is 94% in data set [2] (500 nM for 2hr, control is JNK activity in the presence of DMSO, read-out: % Inhibition of JNK Activity (average) MLK3 in Cos7 cells) and 94% in data set [2] (read-out: Overexpressed MLK3 in Cos 7 Cells JNK % inh. 500 nM). Moreover, the “MPTP-mediated MKK4 phosphorylation” value in data set [3] is reported as “partially inhibited”.

(Values after patent EP1105728B1, “MODULATING MULTIPLE LINEAGE KINASE PROTEINS” (CEPHALON, INC., priority 1998, dated 2000).)
